Active and inactive are the calls of the source.
How the values were obtained:
[1] = molecular target: Beta-2 adrenergic receptor (Homo sapiens, UniProt P07550); test: ADRB2 activation measured by internalization – cell-based, FAP fluorogen, flow cytometry, cherry pick 1, dose response (AID 588763); type: functional
Cytochrome P450 1A2 = molecular target: T1, Cytochrome P450 1A2 (Homo sapiens, UniProt P05177);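 note: PubChem cytochrome P450 panel assay, CYP1A2 panel member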
T1 sequence (P05177 whole entry): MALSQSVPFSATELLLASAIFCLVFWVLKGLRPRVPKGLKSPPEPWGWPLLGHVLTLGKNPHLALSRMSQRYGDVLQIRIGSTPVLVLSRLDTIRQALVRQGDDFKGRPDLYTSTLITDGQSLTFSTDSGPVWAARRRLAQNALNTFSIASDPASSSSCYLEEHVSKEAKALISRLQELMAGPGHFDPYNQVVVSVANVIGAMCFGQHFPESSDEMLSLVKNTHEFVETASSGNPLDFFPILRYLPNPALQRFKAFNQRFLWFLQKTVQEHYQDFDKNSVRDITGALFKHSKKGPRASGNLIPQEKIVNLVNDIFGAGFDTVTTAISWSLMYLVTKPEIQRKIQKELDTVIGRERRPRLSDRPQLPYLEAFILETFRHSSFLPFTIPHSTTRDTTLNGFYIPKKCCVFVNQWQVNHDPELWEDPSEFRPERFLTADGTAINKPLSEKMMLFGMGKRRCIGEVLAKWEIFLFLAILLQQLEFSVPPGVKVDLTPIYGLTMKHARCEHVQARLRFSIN

Cytochrome P450 2C9 = Cytochrome P450 2C9 (Homo sapiens, UniProt P11712)
Sequence of Cytochrome P450 2C9 (P11712 whole entry): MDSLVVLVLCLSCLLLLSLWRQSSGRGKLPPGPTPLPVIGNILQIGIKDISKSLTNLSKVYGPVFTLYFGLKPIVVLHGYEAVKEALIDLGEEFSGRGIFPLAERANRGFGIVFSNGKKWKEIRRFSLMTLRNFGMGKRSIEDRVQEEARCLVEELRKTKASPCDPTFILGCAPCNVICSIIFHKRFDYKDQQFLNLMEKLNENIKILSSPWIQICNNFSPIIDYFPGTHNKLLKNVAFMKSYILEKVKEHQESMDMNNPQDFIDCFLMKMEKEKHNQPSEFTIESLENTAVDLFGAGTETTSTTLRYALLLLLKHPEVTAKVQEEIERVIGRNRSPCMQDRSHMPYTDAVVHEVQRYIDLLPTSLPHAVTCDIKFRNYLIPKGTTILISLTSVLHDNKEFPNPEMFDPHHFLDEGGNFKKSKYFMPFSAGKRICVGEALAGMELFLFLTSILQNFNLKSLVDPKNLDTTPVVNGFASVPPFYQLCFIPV

[2] = molecular target: T2, Sentrin-specific protease 8 (Homo sapiens, UniProt Q96LD8); test: inhibition of human SENP8 cleavage activity – biochemical, luminescence, SAR follow-up (AID 504501); type: functional
T2 sequence (Q96LD8 whole entry): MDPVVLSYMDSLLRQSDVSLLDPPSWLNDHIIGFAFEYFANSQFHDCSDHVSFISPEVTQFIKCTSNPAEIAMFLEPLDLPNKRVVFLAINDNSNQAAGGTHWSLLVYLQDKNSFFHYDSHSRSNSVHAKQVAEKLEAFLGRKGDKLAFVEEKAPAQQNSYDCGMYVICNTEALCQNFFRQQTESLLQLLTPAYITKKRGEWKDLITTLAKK

Caspase-3 = molecular target: T3, Caspase-3 (Homo sapiens, UniProt P42574); test: SAR Analysis of small molecule inhibitors of Sentrin-specific proteases (SENPs) using a Caspase-3 Selectivity assay. [Related pubchem assays (depositor defined):AID2540, AID2599, AID434973, AID489001]; type: functional
T3 sequence (P42574 whole entry): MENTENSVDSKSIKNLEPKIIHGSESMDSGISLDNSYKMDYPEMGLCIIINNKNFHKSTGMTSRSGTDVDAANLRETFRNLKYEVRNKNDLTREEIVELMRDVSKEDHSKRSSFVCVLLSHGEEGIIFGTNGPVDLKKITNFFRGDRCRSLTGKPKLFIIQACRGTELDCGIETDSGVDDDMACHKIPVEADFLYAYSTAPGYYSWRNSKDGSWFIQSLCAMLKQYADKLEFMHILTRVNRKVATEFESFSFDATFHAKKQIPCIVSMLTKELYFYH

[3] = molecular target: T4, Sentrin-specific protease 6 (Homo sapiens, UniProt Q9GZR1); test: SAR Analysis of small molecule inhibitors of Sentrin-specific protease 6 (SENP6) using a Luminescent assay. [Related pubchem assays (depositor defined):AID2582, AID2599]; type: functional
T4 sequence (Q9GZR1 whole entry): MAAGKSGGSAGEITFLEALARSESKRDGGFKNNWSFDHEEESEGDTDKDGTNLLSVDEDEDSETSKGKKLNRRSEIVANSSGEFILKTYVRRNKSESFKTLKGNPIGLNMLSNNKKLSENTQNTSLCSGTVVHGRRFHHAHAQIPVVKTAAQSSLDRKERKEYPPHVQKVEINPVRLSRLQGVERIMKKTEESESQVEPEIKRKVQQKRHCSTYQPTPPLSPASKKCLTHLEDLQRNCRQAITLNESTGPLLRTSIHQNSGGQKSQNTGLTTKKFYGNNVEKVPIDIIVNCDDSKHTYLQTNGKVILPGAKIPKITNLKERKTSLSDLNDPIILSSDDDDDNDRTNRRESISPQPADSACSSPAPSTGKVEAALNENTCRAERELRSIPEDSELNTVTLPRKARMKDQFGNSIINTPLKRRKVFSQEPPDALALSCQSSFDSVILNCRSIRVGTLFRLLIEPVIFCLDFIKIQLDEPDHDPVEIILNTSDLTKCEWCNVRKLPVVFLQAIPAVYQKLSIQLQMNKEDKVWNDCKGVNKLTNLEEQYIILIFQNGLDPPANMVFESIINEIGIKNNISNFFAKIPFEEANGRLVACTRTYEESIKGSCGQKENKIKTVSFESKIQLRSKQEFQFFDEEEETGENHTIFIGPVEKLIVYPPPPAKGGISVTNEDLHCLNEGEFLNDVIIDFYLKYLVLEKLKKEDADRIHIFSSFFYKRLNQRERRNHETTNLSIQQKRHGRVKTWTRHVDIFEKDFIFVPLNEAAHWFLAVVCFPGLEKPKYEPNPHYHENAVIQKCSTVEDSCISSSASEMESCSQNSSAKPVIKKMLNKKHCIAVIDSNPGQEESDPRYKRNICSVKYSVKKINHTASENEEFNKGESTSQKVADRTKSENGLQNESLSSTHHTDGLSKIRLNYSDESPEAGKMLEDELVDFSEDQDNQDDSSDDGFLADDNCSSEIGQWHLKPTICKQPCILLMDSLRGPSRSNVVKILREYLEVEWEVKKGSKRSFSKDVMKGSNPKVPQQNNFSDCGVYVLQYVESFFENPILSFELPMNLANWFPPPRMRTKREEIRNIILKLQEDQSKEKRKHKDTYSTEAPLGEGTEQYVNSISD

[4] = molecular target: T5, Sentrin-specific protease 7 (Homo sapiens, UniProt Q9BQF6); test: inhibition of human SENP7 cleavage activity – biochemical, luminescence, SAR follow-up (AID 504497); type: functional
T5 sequence (Q9BQF6 whole entry): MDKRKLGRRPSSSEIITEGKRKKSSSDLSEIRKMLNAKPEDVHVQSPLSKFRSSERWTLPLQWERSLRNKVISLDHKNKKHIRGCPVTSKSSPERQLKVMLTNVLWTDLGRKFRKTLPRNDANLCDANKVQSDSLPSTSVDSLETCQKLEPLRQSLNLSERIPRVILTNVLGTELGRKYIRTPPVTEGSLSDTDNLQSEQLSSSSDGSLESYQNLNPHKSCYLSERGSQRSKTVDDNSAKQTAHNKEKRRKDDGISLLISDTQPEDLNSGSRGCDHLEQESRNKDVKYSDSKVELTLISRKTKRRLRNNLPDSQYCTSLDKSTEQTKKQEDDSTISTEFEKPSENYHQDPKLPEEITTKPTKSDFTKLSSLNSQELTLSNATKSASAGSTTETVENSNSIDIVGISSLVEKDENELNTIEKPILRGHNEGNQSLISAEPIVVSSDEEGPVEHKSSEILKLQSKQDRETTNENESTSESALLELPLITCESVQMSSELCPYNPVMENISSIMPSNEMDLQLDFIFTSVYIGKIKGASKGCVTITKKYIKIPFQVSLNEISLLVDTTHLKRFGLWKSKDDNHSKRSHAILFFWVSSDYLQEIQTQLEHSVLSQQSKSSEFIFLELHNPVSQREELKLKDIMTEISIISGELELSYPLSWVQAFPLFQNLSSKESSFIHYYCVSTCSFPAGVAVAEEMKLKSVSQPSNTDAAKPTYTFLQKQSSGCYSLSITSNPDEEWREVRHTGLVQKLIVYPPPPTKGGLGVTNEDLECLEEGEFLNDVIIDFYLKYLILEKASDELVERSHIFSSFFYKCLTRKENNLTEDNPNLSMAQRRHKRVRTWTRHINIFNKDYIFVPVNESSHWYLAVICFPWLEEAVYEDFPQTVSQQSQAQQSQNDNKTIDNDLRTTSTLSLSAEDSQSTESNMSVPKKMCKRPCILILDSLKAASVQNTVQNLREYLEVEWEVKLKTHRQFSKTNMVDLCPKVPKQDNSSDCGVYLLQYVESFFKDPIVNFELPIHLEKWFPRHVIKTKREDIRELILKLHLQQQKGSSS

Insulin-degrading enzyme [5] = molecular target: T6, Insulin-degrading enzyme (Homo sapiens, UniProt P14735); test: recombinant IDE activation, cell-free – biochemical, fluorescence polarization, counter-screen for IDE activator project, dose response (AID 588681)
T6 sequence (P14735 whole entry): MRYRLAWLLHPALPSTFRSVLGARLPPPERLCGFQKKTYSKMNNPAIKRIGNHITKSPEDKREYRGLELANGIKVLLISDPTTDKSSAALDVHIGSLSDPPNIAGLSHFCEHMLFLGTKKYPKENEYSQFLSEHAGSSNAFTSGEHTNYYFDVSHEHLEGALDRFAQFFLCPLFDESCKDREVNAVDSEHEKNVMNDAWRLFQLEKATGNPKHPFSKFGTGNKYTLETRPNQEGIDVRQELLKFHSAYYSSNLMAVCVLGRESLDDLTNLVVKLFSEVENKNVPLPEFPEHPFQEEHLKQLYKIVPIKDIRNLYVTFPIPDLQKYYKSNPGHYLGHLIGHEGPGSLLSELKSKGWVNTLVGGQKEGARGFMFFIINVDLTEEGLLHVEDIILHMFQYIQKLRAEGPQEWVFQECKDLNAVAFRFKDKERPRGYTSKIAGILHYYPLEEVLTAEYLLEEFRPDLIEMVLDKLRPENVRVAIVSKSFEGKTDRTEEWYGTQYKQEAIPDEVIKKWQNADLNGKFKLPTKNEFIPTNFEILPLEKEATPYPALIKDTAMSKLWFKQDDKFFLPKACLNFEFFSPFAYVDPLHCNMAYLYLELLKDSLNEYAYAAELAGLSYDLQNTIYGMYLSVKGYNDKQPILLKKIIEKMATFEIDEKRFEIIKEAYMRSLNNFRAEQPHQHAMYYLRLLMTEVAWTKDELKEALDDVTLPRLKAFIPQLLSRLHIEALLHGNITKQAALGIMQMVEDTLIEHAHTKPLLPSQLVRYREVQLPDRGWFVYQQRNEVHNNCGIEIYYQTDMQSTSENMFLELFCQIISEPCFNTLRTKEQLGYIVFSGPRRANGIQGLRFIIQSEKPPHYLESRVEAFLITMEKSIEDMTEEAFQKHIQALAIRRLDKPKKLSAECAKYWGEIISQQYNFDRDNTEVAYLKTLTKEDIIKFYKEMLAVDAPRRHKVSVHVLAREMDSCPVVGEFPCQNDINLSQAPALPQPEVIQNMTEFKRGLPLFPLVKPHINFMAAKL

Insulin-degrading enzyme [6] = molecular target: T6, Insulin-degrading enzyme; test: cellular IDE activation of Abeta substrate cleavage – fluorescence polarization, HEK cells, dose response (AID 588439); type: functional, cell-based
HEK293 [7] = test: membrane integrity loss in HEK cells – cell-based, fluorescence, cytotoxicity control for IDE activator project, dose response (AID 588440); type: functional; details: Homo sapiens;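 note: cytotoxicity by LDH release measuring loss of membrane integrity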
HEK293 [8] = test: optical interference in Abeta FP readout, dose response, artefact control for IDE activator project, biochemical, fluorescence polarization (AID 588442); type: functional, cell-based; details: Homo sapiens
[9] = molecular target: Melanin-concentrating hormone receptor 1 (Homo sapiens, UniProt Q99705); test: Late-stage fluorescence-based counterscreen for antagonists of the G-protein coupled receptor 7 (GPR7): cell-based dose response assay to identify antagonists of the melanin-concentrating hormone receptor 1 (MCHR1) Set 6.; type: functional
Sequence of Melanin-concentrating hormone receptor 1 (Q99705 whole entry): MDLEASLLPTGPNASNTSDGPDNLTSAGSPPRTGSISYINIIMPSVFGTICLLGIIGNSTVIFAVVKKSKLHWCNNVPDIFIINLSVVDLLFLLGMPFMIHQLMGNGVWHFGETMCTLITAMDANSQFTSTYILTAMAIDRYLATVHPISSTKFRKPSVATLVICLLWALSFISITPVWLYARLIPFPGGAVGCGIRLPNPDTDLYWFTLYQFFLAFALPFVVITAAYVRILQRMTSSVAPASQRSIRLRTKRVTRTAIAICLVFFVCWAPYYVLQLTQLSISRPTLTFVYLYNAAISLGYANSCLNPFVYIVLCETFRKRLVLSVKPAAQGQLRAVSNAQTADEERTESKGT

[10] = molecular target: T7, Neuropeptides B/W receptor type 1 (Homo sapiens, UniProt P48145); test: human NPBW1 receptor blockade, IC50 – cell-based, fluorescence, dose response, set 6, late-stage follow-up (AID 588583); type: functional
T7 sequence (P48145 whole entry): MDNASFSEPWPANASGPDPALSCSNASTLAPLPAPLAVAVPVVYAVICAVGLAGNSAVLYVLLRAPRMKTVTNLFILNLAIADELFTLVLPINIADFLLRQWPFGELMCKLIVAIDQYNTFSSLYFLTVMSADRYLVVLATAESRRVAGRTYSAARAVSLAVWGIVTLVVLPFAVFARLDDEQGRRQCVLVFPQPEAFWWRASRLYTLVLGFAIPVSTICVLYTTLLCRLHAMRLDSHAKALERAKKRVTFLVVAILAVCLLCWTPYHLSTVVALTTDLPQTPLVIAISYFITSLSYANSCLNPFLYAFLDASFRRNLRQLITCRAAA

Sequence of Beta-2 adrenergic receptor (P07550 whole entry): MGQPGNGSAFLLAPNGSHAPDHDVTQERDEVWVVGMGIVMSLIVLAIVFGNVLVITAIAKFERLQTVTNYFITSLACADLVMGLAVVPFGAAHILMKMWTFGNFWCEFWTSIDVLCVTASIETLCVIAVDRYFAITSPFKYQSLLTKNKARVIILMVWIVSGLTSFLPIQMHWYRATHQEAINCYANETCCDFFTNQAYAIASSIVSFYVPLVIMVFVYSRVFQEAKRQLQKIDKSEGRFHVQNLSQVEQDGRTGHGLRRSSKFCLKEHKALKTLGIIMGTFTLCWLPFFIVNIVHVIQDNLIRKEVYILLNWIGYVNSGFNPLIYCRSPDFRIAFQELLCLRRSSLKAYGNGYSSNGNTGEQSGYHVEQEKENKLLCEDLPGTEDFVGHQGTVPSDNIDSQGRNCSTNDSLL

| SMILES | IC50 [2] | IC50 (Caspase-3) | IC50 [3] | IC50 [4] | IC50 [9] | IC50 [10] | other results |
| --- | --- | --- | --- | --- | --- | --- | --- |
| O=C(C[n+]1cccc(NC(=O)c2ccccc2)c1)c1ccc(NC(=O)c2ccccc2)cc1 | – | – | – | – | – | – | EC50 [1]: 2.76 µM (active); AC50 (Cytochrome P450 1A2): 17.8 µM (inconclusive); AC50 (Cytochrome P450 2C9): 5.62 µM (inconclusive) |
| N#Cc1c(NC(=O)c2ccc(Cn3cc(Br)cn3)o2)sc2c1CCCCCC2 | > 99 µM (inactive) | > 99 µM (inactive) | > 99 µM (inactive) | > 99 µM (inactive) | – | – | – |
| CNC[C@@H]1Oc2ccc(NS(=O)(=O)c3ccc(OC)cc3)cc2CC(=O)N([C@H](C)CO)C[C@@H]1C | – | – | – | – | – | – | EC50 (Insulin-degrading enzyme [5]): > 54.7 µM (inactive); EC50 (Insulin-degrading enzyme [6]): > 54.7 µM (inactive); IC50 (HEK293 [7]): > 89.2 µM (inactive); EC50 (HEK293 [8]): > 55.9 µM (inactive) |
| CCCCc1ccc2nc(NC(=O)c3csc4ccccc34)sc2c1 | > 99 µM (inactive) | > 99 µM (inactive) | > 99 µM (inactive) | > 99 µM (inactive) | – | – | – |
| Cc1nnc(C(C#N)c2c(Cl)cnn(Cc3cccc4ccccc34)c2=O)o1 (centres undefined) | – | – | – | – | 0.435 µM (active) | 0.435 µM (active) | – |
| N#CC(c1cccc(C(F)(F)F)c1)c1c(Cl)cnn(Cc2cccc3ccccc23)c1=O (centres undefined) | – | – | – | – | 1.53 µM (active) | 1.53 µM (active) | – |

Reference: ChEMBL document CHEMBL1201862, “PubChem BioAssay data set” (2004)
